Type in all cases: cell-based
Experiment [1] deals with Lactobacillus gasseri (FERM BP-11331). The experiment in a line: Growth-promoting effect on Lactobacillus gasseri in modified MRS medium (particle count). An excerpt:
Nitrogen sources in MRS medium were reduced to find a medium composition that achieves a total bacterial count of about 1.0×10^8 cell/mL to 1.0×10^9 cell/mL after culturing of each of the six bacterial strains Lactobacillus gasseri (FERNM BP-11331), Lactobacillus acidophilus (FERM BP-4981), Lactobacillus amylovorus (FERM BP-11255), Lactobacillus curvatus (NITE P-02033), Lactobacillus plantarum, and Lactobacillus brevis. This composition, named “modified MRS medium”, was used for the evaluation. Here, for the composition of the MRS medium, a composition described in a medium catalog provided by BD (Becton, Dickinson and Company) was used as a reference. The compositions of the MRS medium and the modified MRS medium are as follows. By chemical synthesis, 28 kinds of candidate peptides having the sequences shown below were provided. Each candidate peptide was added to the modified MRS medium at 0.25 mg/mL to provide a medium to be evaluated. The lactic acid bacterium Lactobacillus gasseri was inoculated at 1.0×10^7 cells/mL to the provided medium to be evaluated, and culture was carried out at a temperature of 37° C. for a culture period of 18 hours. The resulting culture was collected, and subjected to measurement of the particle concentration (particles/mL) as a characteristic value that can be used as an index of the bacterial cell growth, using a particle count analyzer (CDA-1000, Sysmex). The rate of increase (%) was calculated relative to a control value obtained using a medium to which no peptide was added, which was taken as 100%. Using the dipeptide LF (Leu-Phe) and an equimolar mixture of leucine (L) and phenylalanine (F), culture was carried out in the same manner as in Example 1, and the growth-promoting effects of the dipeptide and the amino acid mixture on the lactic acid bacterium were evaluated. Using a dipeptide (LF) as the peptide, the growth-promoting effect on a lactic acid bacterium was evaluated in the same manner except that the concentration of the dipeptide added was 0.1 mg/mL, 0.25 mg/mL, or 1.0 mg/mL.

Experiment [2] concerns Lactobacillus brevis. The experiment in a line: Growth-promoting effect on Lactobacillus brevis in modified MRS medium (particle count). As to conditions: Example 6, peptide 0.25 mg/mL, 37° C., 18 hours; for Rate of increase: control = 100%. The source says:
Nitrogen sources in MRS medium were reduced to find a medium composition that achieves a total bacterial count of about 1.0×10^8 cell/mL to 1.0×10^9 cell/mL after culturing of each of the six bacterial strains Lactobacillus gasseri (FERNM BP-11331), Lactobacillus acidophilus (FERM BP-4981), Lactobacillus amylovorus (FERM BP-11255), Lactobacillus curvatus (NITE P-02033), Lactobacillus plantarum, and Lactobacillus brevis. This composition, named “modified MRS medium”, was used for the evaluation. Here, for the composition of the MRS medium, a composition described in a medium catalog provided by BD (Becton, Dickinson and Company) was used as a reference. The compositions of the MRS medium and the modified MRS medium are as follows. By chemical synthesis, 28 kinds of candidate peptides having the sequences shown below were provided. Each candidate peptide was added to the modified MRS medium at 0.25 mg/mL to provide a medium to be evaluated. The lactic acid bacterium Lactobacillus gasseri was inoculated at 1.0×10^7 cells/mL to the provided medium to be evaluated, and culture was carried out at a temperature of 37° C. for a culture period of 18 hours. The resulting culture was collected, and subjected to measurement of the particle concentration (particles/mL) as a characteristic value that can be used as an index of the bacterial cell growth, using a particle count analyzer (CDA-1000, Sysmex). The rate of increase (%) was calculated relative to a control value obtained using a medium to which no peptide was added, which was taken as 100%. For eight kinds of candidate peptides having the sequences shown below, the growth-promoting effect on a lactic acid bacterium was evaluated in the same manner as in Example 1 except that Lactobacillus brevis was used instead of Lactobacillus gasseri.

Experiment [3] relates to Lactobacillus plantarum. The experiment in a line: Growth-promoting effect on Lactobacillus plantarum in modified MRS medium (particle count). As to conditions: Example 5, peptide 0.25 mg/mL, 37° C., 18 hours; for Rate of increase: control = 100%. The source says: Nitrogen sources in MRS medium were reduced to find a medium composition that achieves a total bacterial count of about 1.0×10^8 cell/mL to 1.0×10^9 cell/mL after culturing of each of the six bacterial strains Lactobacillus gasseri (FERNM BP-11331), Lactobacillus acidophilus (FERM BP-4981), Lactobacillus amylovorus (FERM BP-11255), Lactobacillus curvatus (NITE P-02033), Lactobacillus plantarum, and Lactobacillus brevis. This composition, named “modified MRS medium”, was used for the evaluation. Here, for the composition of the MRS medium, a composition described in a medium catalog provided by BD (Becton, Dickinson and Company) was used as a reference. The compositions of the MRS medium and the modified MRS medium are as follows. By chemical synthesis, 28 kinds of candidate peptides having the sequences shown below were provided. Each candidate peptide was added to the modified MRS medium at 0.25 mg/mL to provide a medium to be evaluated. The lactic acid bacterium Lactobacillus gasseri was inoculated at 1.0×10^7 cells/mL to the provided medium to be evaluated, and culture was carried out at a temperature of 37° C. for a culture period of 18 hours. The resulting culture was collected, and subjected to measurement of the particle concentration (particles/mL) as a characteristic value that can be used as an index of the bacterial cell growth, using a particle count analyzer (CDA-1000, Sysmex). The rate of increase (%) was calculated relative to a control value obtained using a medium to which no peptide was added, which was taken as 100%. For eight kinds of candidate peptides having the sequences shown below, the growth-promoting effect on a lactic acid bacterium was evaluated in the same manner as in Example 1 except that Lactobacillus plantarum was used instead of Lactobacillus gasseri.

Where [4] appears, read: Example 1, peptide 0.25 mg/mL, 37° C., 18 hours, inoculum 1.0×10^7 cells/mL.
[5] abbreviates: Example 1, peptide 0.25 mg/mL, 37° C., 18 hours, control without peptide = 100%.

Ends that are not written are not given here.

Take “Val-Pro-Ala-Phe (VPAF; listed as Saccharomyces cerevisiae)”: the Particle concentration in experiment [1] (setting [4]) amounted to 2.62e+08 mL⁻¹; in experiment [2], 1.16e+09 mL⁻¹; in experiment [3], 3.27e+09 mL⁻¹. Besides, the figures for the Rate of increase in experiment [1] (setting [5]), in experiment [2] and in experiment [3] were 152%, 106% and 105%, respectively.

Regarding Pro-Val-Tyr [PVY], the Particle concentration in experiment [1] (setting [4]) worked out at 2.27e+08 mL⁻¹; in experiment [2] it was 1.17e+09 mL⁻¹; in experiment [3], 3.23e+09 mL⁻¹. Moreover, the figures for the Rate of increase in experiment [1] (setting [5]), in experiment [2] and in experiment [3] were 121%, 107% and 104%, respectively.

Regarding Pro-Val-Phe [PVF], the Particle concentration in experiment [1] (setting [4]) is 2.51e+08 mL⁻¹; in experiment [2], 1.17e+09 mL⁻¹; in experiment [3], 2.92e+09 mL⁻¹. Besides, the Rate of increase was 137% in experiment [1] (setting [5]), 107% in experiment [2] and 94% in experiment [3].

Consider Leu-Phe [LF], for which the Particle concentration in experiment [1] (Comparative Example 1, dipeptide vs equimolar amino acid mixture, cultured as in Example 1) was 3.88e+08 mL⁻¹; in experiment [1] (setting [4]) it was 2.49e+08 mL⁻¹; in experiment [1] (Example 7, addition concentration 0.1 mg/mL), 2.38e+08 mL⁻¹; in experiment [1] (Example 7, addition concentration 0.25 mg/mL) it was 2.49e+08 mL⁻¹; in experiment [1] (Example 7, addition concentration 1.0 mg/mL), 3.17e+08 mL⁻¹; in experiment [2], 1.24e+09 mL⁻¹. Further, the Particle concentration in experiment [3] was determined as 3.32e+09 mL⁻¹. Also, the Rate of increase in experiment [1] (Comparative Example 1, dipeptide vs equimolar amino acid mixture, control = 100%) turned out to be 121%; in experiment [1] (setting [5]), 118%; in experiment [1] (Example 7, addition concentration 0.1 mg/mL, control = 100%), 112%; in experiment [1] (Example 7, addition concentration 0.25 mg/mL, control = 100%), 118%; in experiment [1] (Example 7, addition concentration 1.0 mg/mL, control = 100%), 150%; in experiment [2], 114%. The Rate of increase in experiment [3] was determined as 107%.

On to “Leu-Pro-Trp-Gly (LPWG; listed as Saccharomyces cerevisiae)”, for which the Particle concentration in experiment [1] (setting [4]) is 2.45e+08 mL⁻¹; in experiment [2], 1.18e+09 mL⁻¹; in experiment [3], 3.09e+09 mL⁻¹. Moreover, the figures for the Rate of increase in experiment [1] (setting [5]), in experiment [2] and in experiment [3] were 142%, 108% and 100%, respectively.

“APKPDYPIA (listed as Saccharomyces cerevisiae) [Ala-Pro-Lys-Pro-Asp-Tyr-Pro-Ile-Ala]”: the Particle concentration in experiment [1] (setting [4]) came to 2.37e+08 mL⁻¹; in experiment [2], 1.12e+09 mL⁻¹; in experiment [3], 3.45e+09 mL⁻¹. Further, the Rate of increase in experiment [1] (setting [5]) worked out at 137%; in experiment [2], 103%; in experiment [3], 111%.

On to AGPQTF, for which the Particle concentration in experiment [1] (setting [4]) stood at 2.5e+08 mL⁻¹; in experiment [2], 1.16e+09 mL⁻¹; in experiment [3], 3.36e+09 mL⁻¹. Further, the Rate of increase in experiment [1] (setting [5]) is 126%; in experiment [2], 106%; in experiment [3], 108%.

Turning to “Pro-Ser-Val-Phe (PSVF; listed as Saccharomyces cerevisiae)”, the Particle concentration in experiment [1] (setting [4]) is 2.32e+08 mL⁻¹; in experiment [2], 1.16e+09 mL⁻¹; in experiment [3] it was 3.17e+09 mL⁻¹. In addition, the Rate of increase is reported as 134% in experiment [1] (setting [5]), 106% in experiment [2] and 102% in experiment [3].

The values are drawn from patent US20230151057A1, “LACTIC ACID BACTERIA GROWTH PROMOTER” (Asahi Group Holdings, Ltd., priority 2020, published 2023).
